The results in this text go back to patent publication US12636287B2, “Organic compounds” (INTRA-CELLULAR THERAPIES, INC., priority 2018, dated 2026).

One assay has as its system IN859 GBM cell line. In words: Sensitivity of GBM cell line to Compounds 1 and 2 (ID50). The note with it: Homo sapiens. Type of assay: cell-based.
Another assay concerns GBM cells. Briefly: Proliferation and survival of GBM cells over 8 days. Type of assay: cell-based, human. The note with it: for change in GBM cell population by day 8 / rate of proliferation in comparison with untreated samples: 10 μM and 20 μM; for change in GBM cell population by day 8: UWLV301, UWLV304, IN1951, U251MG and IN2045; for rate of proliferation in comparison with untreated samples: recorded daily for 8 days, all cell lines; for slowing or eliminating the proliferation of the GBM cell lines: summary statement. How it is done:
Further studies were carried out to test the effect of Compounds 1 and 2 on proliferation and survival of the GBM cells. […] Results on the change in cell population were observed and recorded daily for 8 days.

For another assay, the target named is T1, bovine retina PDE6 (Bos taurus, UniProt P11541+P23439).
T1 construct: bovine retina PDE6; from tissue; host or cells: bovine retina
T1 sequence (P11541 2-856 limits assumed): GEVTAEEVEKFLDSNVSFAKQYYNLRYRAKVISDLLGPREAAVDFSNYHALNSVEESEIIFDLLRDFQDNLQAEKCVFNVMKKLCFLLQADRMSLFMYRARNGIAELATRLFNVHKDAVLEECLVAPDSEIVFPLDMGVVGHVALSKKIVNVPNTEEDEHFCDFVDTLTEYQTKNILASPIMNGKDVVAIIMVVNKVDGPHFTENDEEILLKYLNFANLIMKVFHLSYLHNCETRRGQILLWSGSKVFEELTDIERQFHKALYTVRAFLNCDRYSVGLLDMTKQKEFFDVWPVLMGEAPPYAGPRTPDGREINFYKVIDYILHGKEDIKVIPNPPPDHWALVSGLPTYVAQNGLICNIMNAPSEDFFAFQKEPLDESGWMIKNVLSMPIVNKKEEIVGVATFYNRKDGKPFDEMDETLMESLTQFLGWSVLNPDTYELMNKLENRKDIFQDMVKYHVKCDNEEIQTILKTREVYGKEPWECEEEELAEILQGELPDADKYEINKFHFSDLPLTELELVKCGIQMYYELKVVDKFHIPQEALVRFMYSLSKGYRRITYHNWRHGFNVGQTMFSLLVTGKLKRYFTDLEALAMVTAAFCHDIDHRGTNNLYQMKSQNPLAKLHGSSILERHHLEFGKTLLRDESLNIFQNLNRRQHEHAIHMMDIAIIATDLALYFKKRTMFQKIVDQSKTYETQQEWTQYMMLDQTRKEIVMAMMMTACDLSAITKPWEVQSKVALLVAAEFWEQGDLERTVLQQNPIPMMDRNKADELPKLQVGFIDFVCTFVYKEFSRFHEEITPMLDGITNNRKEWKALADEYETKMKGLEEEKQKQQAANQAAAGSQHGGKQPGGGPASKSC
T1 sequence (P23439 2-850 limits assumed): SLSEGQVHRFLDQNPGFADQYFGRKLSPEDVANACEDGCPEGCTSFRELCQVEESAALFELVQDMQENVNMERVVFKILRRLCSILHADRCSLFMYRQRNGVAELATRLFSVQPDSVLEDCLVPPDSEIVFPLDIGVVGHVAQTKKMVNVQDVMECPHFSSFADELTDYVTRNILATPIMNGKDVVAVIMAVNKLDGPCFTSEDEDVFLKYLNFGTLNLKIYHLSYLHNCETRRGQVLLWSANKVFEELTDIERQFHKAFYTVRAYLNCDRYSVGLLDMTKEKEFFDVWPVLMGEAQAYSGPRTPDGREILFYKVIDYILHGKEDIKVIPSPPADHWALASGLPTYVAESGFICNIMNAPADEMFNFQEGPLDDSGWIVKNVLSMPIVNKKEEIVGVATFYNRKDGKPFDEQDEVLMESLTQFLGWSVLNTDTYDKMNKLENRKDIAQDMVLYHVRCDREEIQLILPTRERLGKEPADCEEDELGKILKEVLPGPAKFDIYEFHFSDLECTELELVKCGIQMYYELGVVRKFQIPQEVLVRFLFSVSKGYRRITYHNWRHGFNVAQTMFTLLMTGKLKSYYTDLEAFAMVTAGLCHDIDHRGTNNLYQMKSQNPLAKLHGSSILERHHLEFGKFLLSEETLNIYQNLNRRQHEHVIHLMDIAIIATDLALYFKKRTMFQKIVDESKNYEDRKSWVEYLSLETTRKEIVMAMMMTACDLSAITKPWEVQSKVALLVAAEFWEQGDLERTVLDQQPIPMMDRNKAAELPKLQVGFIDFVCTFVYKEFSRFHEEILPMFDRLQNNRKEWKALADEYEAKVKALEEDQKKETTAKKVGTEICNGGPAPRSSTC
Briefly: Inhibitory constant against PDEs. Type of assay: biochemical.

In another assay the test system is IN2045 GBM cell line. Briefly: Sensitivity of GBM cell line to Compounds 1 and 2 (ID50). Type of assay: cell-based. The note with it: Homo sapiens.
The next assay concerns IN1951 GBM cell line. Described as above. Type of assay: cell-based. The note with it: Homo sapiens.
In another assay the test system is IN1528 GBM cell line. Described as above. The note with it: Homo sapiens. Type of assay: cell-based.
For a further assay, the system named is UWLV304 GBM cell line. The assay is described as above. The note with it: Homo sapiens. Type of assay: cell-based.
Another assay addresses T2, PDE1 (bovine brain).
T2 construct: Ki; other: PDE1 (bovine brain)
Type of assay: biochemical.

The next assay deals with U251MG GBM cell line. Briefly: Sensitivity of GBM cell line to Compounds 1 and 2 (ID50). Type of assay: cell-based. The note with it: Homo sapiens, U-251.
The next assay has as its system UWLV301 GBM cell line. Described as above. The note with it: Homo sapiens. Type of assay: cell-based.

As usually defined, the IC50 is the concentration needed to halve the response being measured. High values mean weaker potency in that assay, low ones greater potency in that assay. For orientation: Ki means the equilibrium dissociation constant of an inhibitor or competing ligand from its target. A higher Ki goes with weaker binding. `CN1C(=O)c2c(nn(Cc3ccc(-c4cccc(F)n4)cc3)c2Nc2ccccc2)N2C1=N[C@@H]1CCC[C@@H]12` [Compound 1]: the half-maximal inhibitory concentration (IC50) turned out to be 34.9 µM in the assay on IN859 GBM cell line; 18.4 µM with IN2045 GBM cell line; 2.04 µM in the assay on IN1951 GBM cell line; 26.5 µM in the assay with IN1528 GBM cell line; 6.4 µM in the assay with UWLV304 GBM cell line; 17.8 µM in the assay on U251MG GBM cell line. Besides, 5.4 µM corresponded to half-maximal inhibition with UWLV301 GBM cell line (IC50). In addition, the “change in GBM cell population by day 8” value in the assay with GBM cells is “overall decrease”. Further, the “rate of proliferation in comparison with untreated samples” value with GBM cells is on record as “proliferated at a slower rate”. Also, the “slowing or eliminating the proliferation of the GBM cell lines” value in the assay with GBM cells is “highly effective”. Moreover, the Ki on bovine retina PDE6 stood at 0.32 µM; on PDE1 (bovine brain), 58 pM.
For the molecule `CC(=O)c1ccc(Cn2nc3c(c2Nc2ccc(F)cc2)C(=O)N(C)C2=NC(C)(C)CN23)cc1` [Compound 2], the IC50 turned out to be 9.77 µM in the assay on IN859 GBM cell line; 12 µM in the assay on IN2045 GBM cell line; 1.03 µM in the assay with IN1951 GBM cell line; 9.45 µM in the assay with IN1528 GBM cell line; 2.87 µM with UWLV304 GBM cell line; 32 µM with U251MG GBM cell line. In the assay with UWLV301 GBM cell line, this molecule registered an IC50 of 4.73 µM. In addition, the “change in GBM cell population by day 8” value with GBM cells is reported as “overall decrease”. Also, in the assay with GBM cells, the “rate of proliferation in comparison with untreated samples” value is recorded as “proliferated at a slower rate”. Further, the “slowing or eliminating the proliferation of the GBM cell lines” value in the assay with GBM cells is “highly effective”.
